Source: ChEMBL document CHEMBL5576122, “Discovery of Novel Azaphenothiazine Derivatives to Suppress Endometrial Cancer by Targeting GRP75 to Impair Its Interaction with IP3R and Mitochondrial Ca2+ Homeostasis” (J Med Chem, 2024)

Legend:
Ishikawa = assay: Inhibition of cell proliferation in human Ishikawa cells incubated for 48 hrs by CCK-8 assay
KLE = assay: Inhibition of cell proliferation in human KLE cells incubated for 48 hrs by CCK-8 assay
in vitro [1] = settings: mouse, liver microsomes
Description: Metabolic stability in mouse liver microsomes assessed as half life

in vitro [2] = settings: human, liver microsomes
in vitro [3] = settings: plasma
Description: Protein binding in plasma (unknown origin)

in vitro [4] = settings: mouse, liver microsomes; remark: listed apart in the source
in vitro [5] = settings: human, liver microsomes; remark: listed apart in the source
CYP3A4 = CYP3A4 (Homo sapiens, UniProt P08684); assay: Inhibition of CYP3A4 (unknown origin) at 10 uM relative to control; type: ADME
CYP1A2 = molecular target: T1, CYP1A2 (Homo sapiens, UniProt P05177); assay: Inhibition of CYP1A2 (unknown origin) at 10 uM relative to control; type: ADME
T1 sequence (P05177 whole entry): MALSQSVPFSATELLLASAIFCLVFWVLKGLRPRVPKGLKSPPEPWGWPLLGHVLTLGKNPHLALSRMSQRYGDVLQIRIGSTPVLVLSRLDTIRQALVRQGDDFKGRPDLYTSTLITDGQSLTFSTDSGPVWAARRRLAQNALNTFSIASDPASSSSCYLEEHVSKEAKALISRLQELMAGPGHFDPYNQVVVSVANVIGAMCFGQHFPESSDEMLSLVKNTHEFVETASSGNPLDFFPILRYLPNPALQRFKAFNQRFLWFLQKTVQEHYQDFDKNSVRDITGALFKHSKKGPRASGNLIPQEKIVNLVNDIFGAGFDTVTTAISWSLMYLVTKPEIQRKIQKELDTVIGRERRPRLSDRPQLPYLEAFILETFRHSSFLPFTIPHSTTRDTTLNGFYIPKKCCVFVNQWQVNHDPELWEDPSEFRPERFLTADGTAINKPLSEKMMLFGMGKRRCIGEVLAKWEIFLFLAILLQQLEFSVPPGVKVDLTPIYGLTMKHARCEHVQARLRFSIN

CYP2D6 = CYP2D6 (Homo sapiens, UniProt P10635); assay: Inhibition of CYP2D6 (unknown origin) at 10 uM relative to control; type: ADME
CYP2C19 = CYP2C19 (Homo sapiens, UniProt P33261); assay: Inhibition of CYP2C19 (unknown origin) at 10 uM relative to control; type: ADME
CYP2C9 = CYP2C9 (Homo sapiens, UniProt P11712); assay: Inhibition of CYP2C9 (unknown origin) at 10 uM relative to control; type: ADME
Chain of CYP2C9 (P11712 whole entry): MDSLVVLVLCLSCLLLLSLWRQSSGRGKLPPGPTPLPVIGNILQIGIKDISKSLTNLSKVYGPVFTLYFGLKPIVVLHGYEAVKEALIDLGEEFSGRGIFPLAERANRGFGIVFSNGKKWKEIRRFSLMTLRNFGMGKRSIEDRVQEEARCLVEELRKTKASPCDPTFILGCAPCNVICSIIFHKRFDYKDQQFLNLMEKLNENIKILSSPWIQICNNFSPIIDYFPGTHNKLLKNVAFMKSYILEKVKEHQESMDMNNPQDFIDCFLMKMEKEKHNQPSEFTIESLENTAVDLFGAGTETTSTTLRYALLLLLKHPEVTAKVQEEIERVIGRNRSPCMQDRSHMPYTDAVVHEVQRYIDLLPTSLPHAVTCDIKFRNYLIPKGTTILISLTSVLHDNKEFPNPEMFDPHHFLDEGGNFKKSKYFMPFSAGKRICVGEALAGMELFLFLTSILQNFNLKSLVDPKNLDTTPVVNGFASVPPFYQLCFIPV

Chain of CYP2C19 (P33261 whole entry): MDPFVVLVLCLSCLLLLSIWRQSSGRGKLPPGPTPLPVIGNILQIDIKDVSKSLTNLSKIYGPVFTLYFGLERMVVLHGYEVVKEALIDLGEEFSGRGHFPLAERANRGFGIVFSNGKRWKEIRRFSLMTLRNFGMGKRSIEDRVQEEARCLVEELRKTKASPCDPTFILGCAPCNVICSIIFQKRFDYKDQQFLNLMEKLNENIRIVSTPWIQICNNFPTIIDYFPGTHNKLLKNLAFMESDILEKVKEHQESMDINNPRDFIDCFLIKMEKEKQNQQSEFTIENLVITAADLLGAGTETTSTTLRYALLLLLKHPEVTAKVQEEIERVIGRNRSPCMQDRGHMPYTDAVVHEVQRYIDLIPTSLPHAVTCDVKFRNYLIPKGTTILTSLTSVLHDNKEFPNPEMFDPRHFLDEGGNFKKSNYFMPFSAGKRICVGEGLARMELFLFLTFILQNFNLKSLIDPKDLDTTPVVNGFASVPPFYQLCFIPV
Chain of CYP3A4 (P08684 whole entry): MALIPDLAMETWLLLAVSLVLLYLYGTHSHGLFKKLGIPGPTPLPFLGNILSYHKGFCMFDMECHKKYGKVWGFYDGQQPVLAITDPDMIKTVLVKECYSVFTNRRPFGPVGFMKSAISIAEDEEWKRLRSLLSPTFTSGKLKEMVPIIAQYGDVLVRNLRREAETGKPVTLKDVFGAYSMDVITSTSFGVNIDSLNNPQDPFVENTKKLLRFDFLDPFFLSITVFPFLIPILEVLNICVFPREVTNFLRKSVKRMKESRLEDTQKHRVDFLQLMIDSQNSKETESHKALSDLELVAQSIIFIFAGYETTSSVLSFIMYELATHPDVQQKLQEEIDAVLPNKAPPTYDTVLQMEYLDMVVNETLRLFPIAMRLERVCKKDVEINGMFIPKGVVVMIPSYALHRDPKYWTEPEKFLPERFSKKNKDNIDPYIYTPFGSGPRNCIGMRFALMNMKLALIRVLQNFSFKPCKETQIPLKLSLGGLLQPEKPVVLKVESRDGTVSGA
Chain of CYP2D6 (P10635 whole entry): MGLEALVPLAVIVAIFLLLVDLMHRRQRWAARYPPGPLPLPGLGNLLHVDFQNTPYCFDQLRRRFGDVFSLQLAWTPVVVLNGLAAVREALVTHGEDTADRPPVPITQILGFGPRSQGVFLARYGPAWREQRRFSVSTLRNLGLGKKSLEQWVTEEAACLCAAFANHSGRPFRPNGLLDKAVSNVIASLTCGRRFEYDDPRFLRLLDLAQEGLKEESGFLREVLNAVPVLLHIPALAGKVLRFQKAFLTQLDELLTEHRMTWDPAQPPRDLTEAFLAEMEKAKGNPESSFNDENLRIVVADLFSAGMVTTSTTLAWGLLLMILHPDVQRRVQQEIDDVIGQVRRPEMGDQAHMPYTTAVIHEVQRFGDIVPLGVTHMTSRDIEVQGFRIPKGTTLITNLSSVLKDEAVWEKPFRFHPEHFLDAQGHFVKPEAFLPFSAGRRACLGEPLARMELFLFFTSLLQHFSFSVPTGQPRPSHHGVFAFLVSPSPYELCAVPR

SMILES | IC50 (Ishikawa) [µM] | IC50 (KLE) [µM] | also measured
CC(C)(C)OC(=O)N1CCC2(CCN(CCCCCN3c4cc(Cl)ccc4Sc4cccnc43)CC2)C1 | 735 | 10.7 | –
Clc1ccc2c(c1)N(CCCCCN1CCC3(CCNCC3)CC1)c1ncccc1S2 | 1.7 | 2.88 | –
CC(C)(C)OC(=O)N1CCC2(CN(CCCCCN3c4cc(Cl)ccc4Sc4cccnc43)C2)C1 | 12.7 | – | –
O=C1CC2(CCN(Cc3ccccc3)CC2)CC(=O)N1CCCCCN1c2cc(Cl)ccc2Sc2cccnc21 | 27.5 | – | –
CC(C)(C)OC(=O)N1CCC2(CCN(CCCCCCN3c4cc(Cl)ccc4Sc4cccnc43)CC2)CC1 | 13.3 | – | –
CC(C)(C)OC(=O)N1CC2(CCN(CCCCCN3c4cc(Cl)ccc4Sc4cccnc43)CC2)C1 | 11.4 | – | –
CN(C)CCCN1c2ccccc2Sc2ccc(Cl)cc21.Cl [CHLORPROMAZINE HYDROCHLORIDE] | 22 | 35 | half-life (in vitro [1]): 7.6 min; CLint scaled (in vitro [2]): 52.3 mL/min/kg; fraction unbound (in vitro [3]): 0.0156; CLint scaled (in vitro [4]): 724 mL/min/kg; half-life (in vitro [5]): 23.8 min
CN1CCC2(CC1)CCN(CCCCCN1c3cc(Cl)ccc3Sc3cccnc31)CC2 | 1.21 | 3.17 | –
CC(C)(C)OC(=O)N1CCC2(CC1)CN(CCCCCN1c3cc(Cl)ccc3Sc3cccnc31)CCO2 | 45.4 | – | –
CC(C)(C)OC(=O)N1CCC2(CCN(CCCCCN3c4cc(C(F)(F)F)ccc4Sc4cccnc43)CC2)CC1 | 6.75 | 14.5 | –
CC(C)(C)OC(=O)N1CCC2(CCN(CCCCCN3c4cc(Cl)ccc4Sc4cccnc43)CC2)CC1 | 5.37 | 9.55 | –
Clc1ccc(CN2CCC3(CCN(CCCCCN4c5cc(Cl)ccc5Sc5cccnc54)CC3)CC2)cc1 | 2.57 | 3.49 | –
COc1ccc2c(c1)N(CCCCCN1CCC3(CC1)CCN(C(=O)OC(C)(C)C)CC3)c1ncccc1S2 | 3.95 | 8.06 | –
CC(C)(C)OC(=O)N1CCC2(CC1)CCN2CCCCCN1c2cc(Cl)ccc2Sc2cccnc21 | 6.13 | 6.23 | –
CC(C)(C)OC(=O)N1CCCC12CCN(CCCCCN1c3cc(Cl)ccc3Sc3cccnc31)CC2 | 7.4 | 8.52 | –
CC(C)(C)OC(=O)N1CCC2(CCN(CCCCCN3c4cc(Cl)ccc4Sc4cccnc43)C2)CC1 | 11.6 | – | –
CCN(CC)c1ccc2c(c1)N(CCCCCN1CCC3(CCN(C)CC3)CC1)c1ncccc1S2 | 17.5 | – | –
Clc1ccc2c(c1)N(CCCCCN1CCC3(CC1)CCN(Cc1ccccc1)CC3)c1ncccc1S2 | 2.4 | 3.96 | –

SMILES | IC50 (Ishikawa) [µM] | IC50 (KLE) [µM] | also measured
O=C1CC2(CCN(CCCCCN3c4cc(Cl)ccc4Sc4cccnc43)CC2)C(=O)N1 | 14.5 | – | –
CC(C)(C)OC(=O)N1CC2(CN(CCCCCN3c4cc(Cl)ccc4Sc4cccnc43)C2)C1 | 12.2 | – | –
CC(C)(C)OC(=O)N1CCC2(CCN(CCCCN3c4cc(Cl)ccc4Sc4cccnc43)CC2)CC1 | 11.1 | – | –
COc1ccc2c(c1)N(CCCCCN1CCC3(CCN(C)CC3)CC1)c1ncccc1S2 | – | – | inhibition at 10 µM (CYP3A4): 20%; inhibition at 10 µM (CYP1A2): 0%; inhibition at 10 µM (CYP2D6): 14.8%; inhibition at 10 µM (CYP2C19): 7.5%; inhibition at 10 µM (CYP2C9): 7%
CN1CCC2(CC1)CCN(CCCCCN1c3cc(OCc4ccccc4)ccc3Sc3cccnc31)CC2 | 14.6 | – | –
Clc1ccc2c(c1)N(CCCCCN1CCC3(CC1)CCN(Cc1ccccn1)CC3)c1ncccc1S2 | 12.8 | – | –
CC(C)(C)OC(=O)N1C[C@]2(C)C[C@@]1(C)CN2CCCCCN1c2cc(Cl)ccc2Sc2cccnc21 | 18.7 | – | –
CC(C)(C)OC(=O)N1CC2(CCN(CCCCCN3c4cc(Cl)ccc4Sc4cccnc43)C2)C1 | 14.4 | – | –
CC(C)(C)OC(=O)N1C2CC1CN(CCCCCN1c3cc(Cl)ccc3Sc3cccnc31)C2 | 53.4 | – | –
CC(C)(C)OC(=O)N1CCC2(CCCN(CCCCCN3c4cc(Cl)ccc4Sc4cccnc43)C2)CC1 | 47.5 | – | –
CC(C)(C)OC(=O)N1CCC2(CC1)CN(CCCCCN1c3cc(Cl)ccc3Sc3cccnc31)C2 | 8.23 | – | –
C#CCN1CCC2(CC1)CCN(CCCCCN1c3cc(Cl)ccc3Sc3cccnc31)CC2 | 4.58 | 8.31 | –
CC(C)(C)OC(=O)N1CCC2(CCN(CCCCCN3c4ccccc4Sc4cccnc43)CC2)CC1 | 6 | 9.99 | –
CC(C)(C)OC(=O)N1CCC2(CCN(CCCCCN3c4cc(Cl)ccc4Sc4cccnc43)C2)C1 (centres undefined) | 10.9 | – | –
CC(C)(C)OC(=O)N1CCC2(CCCN2CCCCCN2c3cc(Cl)ccc3Sc3cccnc32)CC1 | 13.3 | – | –
CC(=O)N1CCC2(CCN(CCCCCN3c4cc(Cl)ccc4Sc4cccnc43)CC2)CC1 | 10.4 | – | –
CC(C)(C)OC(=O)N1CC2CC1CN2CCCCCN1c2cc(Cl)ccc2Sc2cccnc21 (centres undefined) | 21.3 | – | –
CCCN1CCC2(CC1)CCN(CCCCCN1c3cc(Cl)ccc3Sc3cccnc31)CC2 | 1.41 | 3.53 | –
